Data published in patent US12168008B2, “Oxabicycloheptanes for modulation of immune response” (LIXTE BIOTECHNOLOGY, INC., priority 2016, dated 2024).
Read-outs that look alike come from different tables or passages of the source.

Columns and labels:
[1] = format: in vivo, human; details: for dose limiting toxicity (reversible increases in serum creatinine or calculated serum creatinine clearance): 3.1 mg/m2
Procedure: Experimental Design: LB-100 was administered intravenously daily for 3 days in 21-day cycles in a 3+3 dose-escalation design. The primary goal was to determine the maximum tolerated dose and recommended phase 2 dose (ClinicalTrials.gov: NCT01837667).
Eligible patients were aged 18 years or older with proven progressive solid tumors who had failed standard treatments. Patients had to have a life expectancy of at least 12 weeks, an ECOG performance status of 0 or 1, and be able to give informed consent. […] They must not have any other uncontrolled systemic disease. Women of childbearing potential had to have a negative serum or urine pregnancy test result.
An open-label, dose-escalation, phase I study was performed to assess the safety, tolerability, and activity of LB-100 administered for 3 consecutive days every 3 weeks. Pharmacokinetic studies were planned at the maximum tolerable dose (MTD). The starting dose, 0.25 mg/m^2, 1/15th of the highest non-severely toxic dose in dogs, and plan of dose escalation was specified by the FDA. The study was approved by the human investigations committee at each study center and is registered at clinicaltrials.gov: NCT01837667.
LB-100 was supplied as a single use solution. Initially, LB-100 was administered in 50 mL of saline over 15 minutes. […] Dose escalation was prohibited within any cohort. Patients were eligible to receive up to 6 cycles of study therapy, unless unacceptable toxicity, disease progression, or inter-current illness required discontinuation. More than 6 cycles were allowed in the absence of progression and toxicity. Because of cardiac and renal toxicity at high doses in animal toxicology studies, patients had extensive monitoring including ECG, MUGA or echocardiogram, cardiac troponins, and BNP prior to every cycle. Blood chemistries, urinalysis, hematologic profile and vital signs were monitored prior to and on day 1, 3, 8, 15, and 22 of each cycle. Laboratory parameters were tabulated by maximum NCI-CTCAE (Version 4.0) severity grade. A safety review committee assessed all clinical data every 2 weeks and approved dose escalation between cohorts.
Doses of LB-100 were escalated in groups of three patients. […] When a potential DLT occurred, three new patients were entered at that dose. If another DLT occurred, three additional patients were treated at the previous non-DLT dose to determine the safety of that level for phase 2 trials.
Response to treatment was assessed using RECIST version 1.1. All patients with measurable disease, who completed 2 cycles of LB-100 and had at least 1 post-baseline tumor assessment, were evaluable for efficacy. Patients receiving any LB-100 were evaluable for safety. The severity of adverse events and laboratory abnormalities is reported according to NCI-CTCAE version 4.0 and coded using Medical Dictionary for Regulatory Activities.

[2] = test system: mTORC1, mTORC2 and PI(3)K-AKT pathways; assay: Phosphoflow of AKT and S6 in activated CD3 cells; format: cell-based, mouse; details: after 3 hours of activation
Procedure: After 3 hours of in vitro activation of isolated CD3 cells, the activity of mTORC1, mTORC2 and PI(3)K-AKT pathways were assessed by checking the phosphorylation of ribosomal S6 protein (S6), AKT at […] and AKT at Thr308 respectively. […] This difference was not observed in any of the 3 pathways at an early time point of 30 minutes after activation (FIG. 37).
Isolation of TILs—Mice were injected in the right thoracic flank with 0.5×10^6 CT26 cells and treated as above after tumors reached between 50-100 mm^3. After 2 treatments, mice were sacrificed and tumors excised. Tumors were subjected to mechanical disruption using a GentleMACS Dissociator (Miltenyi Biotec) in presence of enzymatic digestion using Tumor Dissociation Kit (Miltenyi Biotec). Intracellular cytokine staining, phosphoflow and flow cytometry—Suspensions containing T cells were stained with a fixable live/dead stain (Invitrogen) in PBS followed by surface antibody staining in FACS buffer (PBS with 0.5% BSA and 0.1% sodium azide). For intracellular staining, cells were stained for surface molecules following by fixation and permeabilization (eBioscience). For cytokine staining, cells were first stimulated with Cell Stimulation Cocktail (eBioscience) containing PMA/Ionomycin and protein transport inhibitor prior to undergoing staining. […] Cells were analyzed by flow cytometry (LSRII; BD Bioscience). […]

CN1CCN(C(=O)C2C(C(=O)O)[C@H]3CC[C@@H]2O3)CC1 (stereo partly shown) [LB-100]
DLT during the first 6 dose levels ([1]; 0.25-2.33 mg/m^2): no DLT | HEADACHE, patients n (%) ([1]; Grade 1-2): 3 (10.3%) | HEADACHE, patients n (%) ([1]; Grade 3): 0 | HEADACHE, patients n (%) ([1]; Grade 4): 0 | ABDOMINAL DISCOMFORT, patients n (%) ([1]; Grade 5): 0 | ABDOMINAL DISTENSION, patients n (%) ([1]; Grade 5): 0 | ACCELERATED HYPERTENSION, patients n (%) ([1]; Grade 5): 0 | ALANINE AMINOTRANSFERASE INCREASED, patients n (%) ([1]; Grade 5): 0 | ANAEMIA, patients n (%) ([1]; Grade 5): 0 | ARTHRALGIA, patients n (%) ([1]; Grade 5): 0 | BLOOD ALKALINE PHOSPHATASE INCREASED, patients n (%) ([1]; Grade 5): 0 | BLOOD UREA INCREASED, patients n (%) ([1]; Grade 5): 0 | CANDIDIASIS, patients n (%) ([1]; Grade 5): 0 | CHEST PAIN, patients n (%) ([1]; Grade 5): 0 | CHILLS, patients n (%) ([1]; Grade 5): 0 | CONSTIPATION, patients n (%) ([1]; Grade 5): 0 | DECREASED APPETITE, patients n (%) ([1]; Grade 5): 0 | DERMATITIS ACNEIFORM, patients n (%) ([1]; Grade 5): 0 | DIARRHOEA, patients n (%) ([1]; Grade 5): 0 | DIZZINESS, patients n (%) ([1]; Grade 5): 0 | EJECTION FRACTION DECREASED, patients n (%) ([1]; Grade 5): 0 | ELECTROCARDIOGRAM QT PROLONGED, patients n (%) ([1]; Grade 5): 0 | GAIT DISTURBANCE, patients n (%) ([1]; Grade 5): 0 | GASTROINTESTINAL DISORDER, patients n (%) ([1]; Grade 5): 0 | GENERALISED OEDEMA, patients n (%) ([1]; Grade 5): 0 | GINGIVAL PAIN, patients n (%) ([1]; Grade 5): 0 | HEADACHE, patients n (%) ([1]; Grade 5): 0 | HYPERCALCAEMIA, patients n (%) ([1]; Grade 5): 0 | HYPERKALAEMIA, patients n (%) ([1]; Grade 5): 0 | HYPERNATRAEMIA, patients n (%) ([1]; Grade 5): 0 | HYPERTENSION, patients n (%) ([1]; Grade 5): 0 | HYPOAESTHESIA, patients n (%) ([1]; Grade 5): 0 | HYPOALBUMINAEMLA, patients n (%) ([1]; Grade 5): 0 | HYPOKINESIA, patients n (%) ([1]; Grade 5): 0 | HYPOTENSION, patients n (%) ([1]; Grade 5): 0 | HYPOXIA, patients n (%) ([1]; Grade 5): 0 | INSOMNIA, patients n (%) ([1]; Grade 5): 0 | MUCOSAL INFLAMMATION, patients n (%) ([1]; Grade 5): 0 | MUSCLE TWITCHING, patients n (%) ([1]; Grade 5): 0 | MUSCULAR WEAKNESS, patients n (%) ([1]; Grade 5): 0 | NAUSEA, patients n (%) ([1]; Grade 5): 0 | NEUROPATHY PERIPHERAL, patients n (%) ([1]; Grade 5): 0 | NEUTROPENIA, patients n (%) ([1]; Grade 5): 0 | OEDEMA PERIPHERAL, patients n (%) ([1]; Grade 5): 0 | OEDEMA, patients n (%) ([1]; Grade 5): 0 | PAIN OF SKIN, patients n (%) ([1]; Grade 5): 0 | PERIPHERAL COLDNESS, patients n (%) ([1]; Grade 5): 0 | PERIPHERAL SENSORY NEUROPATHY, patients n (%) ([1]; Grade 5): 0 | PLATELET COUNT DECREASED, patients n (%) ([1]; Grade 5): 0 | PLEURAL EFFUSION, patients n (%) ([1]; Grade 5): 0 | PROTEINURIA, patients n (%) ([1]; Grade 5): 0 | PYREXIA, patients n (%) ([1]; Grade 5): 0 | SINUS TACHYCARDIA, patients n (%) ([1]; Grade 5): 0 | recommended phase 2 dose ([1]; daily for 3 days every 3 weeks, i.v.): 2.33 mg/m2 | Probable or possible study drug related Grade 3 adverse events ([1]; human, in vivo): 6 (20.7%) patients (%) | dose limiting toxicity (reversible increases in serum creatinine or calculated serum creatinine clearance) ([1]; human, in vivo): 2/4 | symptomatic toxicity ([1]; in vivo): no symptomatic toxicity other than reversible mild to moderate fatigue | toxicities suggestive of autoimmune activity ([1]; in vivo): no patient experienced toxicities suggestive of autoimmune activity | dose limiting toxicity (reversible increases in serum creatinine or calculated serum creatinine clearance) ([1]; in vivo): Two | activity of mTORC1 as measured by phosphorylation of S6 [2]: dose dependent increase | mTORC2 and PI(3)K-AKT pathways (AKT phosphorylation) [2]: minimal effect
